Source: patent US20240408010A1, “A Nano Emulsified Phyto-Drug For Transdermal Treatment of Diabetes” (University of South Africa, priority 2021, published 2024)

Tests used:
albino Wistar rats = assay: Streptozotocin induction of hyperglycemic/diabetic state in albino Wistar rats; type: in vivo
Procedure: Table 1 presents the results of how the metabolism of normal albino rats progresses into a hyperglycemic/diabetic state as a multiple low-dosage of streptozotocin is administered for diabetes induction.

[1] = Solubility of diosgenin in oil phase; type: physicochemical; settings: dissolved in combination with bottle gourd seed

SMILES	Glucose Concentration (albino Wistar rats; First Cycle, Day 15) [mg/dL]	Glycated Hemoglobin GHb (albino Wistar rats; First Cycle, Day 15)	Glycated Hemoglobin HbA1c (albino Wistar rats; First Cycle, Day 15) [%]	Glycated Hemoglobin MBG (albino Wistar rats; First Cycle, Day 15)	Glucose Concentration (albino Wistar rats; First Cycle, Dose 1 of multiple low-dosage streptozotocin) [mg/dL]	Glucose Concentration (albino Wistar rats; First Cycle, Dose 2) [mg/dL]	Glucose Concentration (albino Wistar rats; First Cycle, Dose 3) [mg/dL]	Glucose Concentration (albino Wistar rats; Second cycle, Dose 4) [mg/dL]	Glucose Concentration (albino Wistar rats; Second cycle, Dose 5) [mg/dL]	Glucose Concentration (albino Wistar rats; Second cycle, Dose 6) [mg/dL]	Glycated Hemoglobin GHb (albino Wistar rats; Second cycle, Dose 6)	Glycated Hemoglobin HbA1c (albino Wistar rats; Second cycle, Dose 6) [%]	Glycated Hemoglobin MBG (albino Wistar rats; Second cycle, Dose 6)	solubility of diosgenin [1]
CN(N=O)C(=O)N[C@H]1C(O)O[C@H](CO)[C@@H](O)[C@@H]1O (mixture of isomers) [Streptozotocin, streptozotocin]	532.17 ± 22.15	12.37 ± 0.81	9.50 ± 0.54	225.39 ± 15.55	171.56 ± 22.70	318.31 ± 19.86	439.31 ± 41.00	425.60 ± 31.10	459.87 ± 33.56	451.89 ± 44.27	12.40 ± 0.28	9.50 ± 0.19	226.03 ± 5.53	–
C[C@@H]1CC[C@@]2(OC1)O[C@H]1C[C@H]3[C@@H]4CC=C5C[C@@H](O)CC[C@]5(C)[C@H]4CC[C@]3(C)[C@H]1[C@@H]2C [diosgenin]	–	–	–	–	–	–	–	–	–	–	–	–	–	enhanced
